For this data set the following is noted: Crystal; visual observation.

Numbers after ± are expanded uncertainties.

Regarding `Cc1ccc(S(=O)(=O)[O-])cc1.c1ccc2sc[nH+]c2c1` [benzothiazolium p-toluenesulfonate], the Normal melting temperature was 120.00 ± 0.5 °C.

Values taken from the NIST ThermoML archive (doi:10.1016/j.jct.2013.12.031).
